# Assay results as given in ChEMBL document CHEMBL5380806, “Cyclopropenone, Cyclopropeniminium Ion, and Cyclopropenethione as Novel Electrophilic Warheads for Potential Target Discovery of Triple-Negative Breast Cancer” (J Med Chem, 2023).
# System: MDA-MB-231
# Assay: Induction of cell cycle arrest in human MDA-MB-231 cells assessed as G2/M phase cells at 0.156 uM incubated for 24 hrs by PI/RNase staining based flow cytometric analysis relative to control
# Assay type: functional
structure (smiles),measurement,value
C#CCOc1ccc(-c2cc2=O)cc1,Activity,26.86%
